# From patent US12233164B2, “Drug delivery composition and method of fabrication” (DIGNITY HEALTH, priority 2017, dated 2025)
# Columns and labels:
# [1] = Controlled release of quisinostat from dialysis cassette into PBS; format: physicochemical; settings: 37° C., 3.5k MWCO dialysis cassette
# Procedure: Controlled Release Quisinostat release from nanoparticles was determined using a protocol adapted from Wang et al.. Nanoparticles were diluted to 20 mg/ml in PBS (pH 7) and 400 μl was transferred to a 3.5 k MWCO Slide-A-Lyzer Dialysis cassette (Thermo Fisher Scientific, Waltham, MA USA) in triplicate. Each cassette was immersed in 2 l PBS (pH 7, replaced at each time point) at 37° C. with gentle stirring (100 rpm). At each time point, 30 μl nanoparticles was removed from the cassette and dissolved in 150 μl DMSO. 60 μl dissolved nanoparticles was added in triplicate to a clear, flat bottom, 96-well plate, and the amount of drug remaining was quantified by absorbance as described above. A free quisinostat control at the equivalent concentration was included to measure quisinostat movement across the membrane using the same protocol.
# [2] = tested on: GL261 murine glioma cells; assay: In vitro nanoparticle efficacy, CellTiter-Glo cell viability; format: cell-based; settings: Mus musculus, 72 hours, read-out: IC50, growth inhibition
# Procedure: Cell Culture GL261-LucNeo cells were generated by retroviral transduction of parent GL261 cells. The LucNeo construct (obtained from AndrewKung laboratory, Dana-Farber Cancer Institute) is described in Rubin et al.. Cells were maintained under normal adherent culture conditions supplemented with G-418 as a selection pressure. Cells were grown in T25 flasks in DMEM containing glucose, L-glutamine and 10% FBS at 37° C. and 5% CO2. 0.25% trypsin-EDTA was applied to collect cells, and a Cellometer mini (Nexcelom Bioscience, Lawrence, MA USA) was used to count cells prior to all in vitro and in vivo experiments.
# In vitro Nanoparticle Efficacy GL261 cells were seeded in 96-well flat, white walled, clear bottom plates at a density of 3 k cells/well in 100 μl media and allowed to attach for 4 hours prior to adding treatments. Each plate was treated with 10 μl/well of 19 serial dilutions (1:2) ranging from 10 to 0 μM in PBS of either free drug or nanoparticles. After 72 hours, cell viability was assessed using CellTiter-Glo, and an IC50 value was calculated using GraphPad Prism (San Diego, CA USA) by a nonlinear fit of the log (inhibitor) vs. response function.
# [3] = tested on: orthotopic GL261-LucNeo tumors; assay: Treatment efficacy in mice bearing orthotopic GL261 tumors (bioluminescence tumor growth, survival); format: in vivo, C57BL/6 albino mice; settings: free drug study: 10 mg/kg IP, days 11, 12, 18, 19, n=5
# Procedure: Tumor induction Orthotopic GL261-LucNeo tumors were induced in C57BL/6 albino mice (Harlan Laboratories, Indianass, IN, USA) as previously reported. Briefly, mice were anesthetized with an intraperitoneal injection of ketamine/xylazine (100/10 mg/kg) and mounted in a stereotaxic frame (Kopf Instruments, Tujunga, CA, USA) on top of an infrared heating pad to maintain animal temperature. The animal's head was shaved and sterilized with three alternating passes each of betadine and ethanol. A 1 cm incision was made over midline, and a burr hole was drilled 2 mm lateral, 0.1 mm posterior of bregma. A hamiltion syringe (29 gauge needle) containing 75 k GL261-LucNeo cells in 2 μl DMEM was inserted into the hole to a depth of 2.8 mm and the cells were injected over 2 min. The needle was left in place for 1 min to reduce backflow before the wound was closed with staples. All animals received a subcutaneous (SQ) injection of Buprenorphine SR prior to surgery, and ibuprofen was provided in their water ad lib for 1 week for pain. […]
# Tumor treatment Quisinostat-loaded nanoparticles were tested in vivo in mice bearing orthotopic GL261 tumors. […] Treatment efficacy was measured by tumor growth and median survival. Mice were monitored daily and euthanized at the sign of symptoms (lack of grooming, abnormal gait, hunched posture, etc.) or greater than 15% weight loss. […]
# [4] = solubilized with hydroxy-propyl-β-cyclodextrin and/or mannitol; IP or SQ injection; cited from earlier work
structure (smiles),measurement,setting,value
"Cn1cc(CNCC2CCN(c3ncc(C(=O)NO)cn3)CC2)c2ccccc21 [quisinostat, Quisinostat]",time to complete quisinostat release,[1],≤ 4 h
same,IC50,[2],24 nM
same,tumor doubling time,[3]; saline 2.4 days,2.4 days
same,median survival,[3]; saline 22 days,19 days
same,maximum tolerated dose,[4],35-70 mg/kg/week
